Measurements: a melting point compilation (Tetko et al.; mined from patent text by program, amines drawn as free bases though some values may be those of a salt)

`COc1ccc(N2CCOCC2)c2sc(-c3nc(-c4ccc5c(c4)OCCO5)c[nH]3)nc12` showed a melting point of 235 to 237 °C. Work on `COc1ccc2nc(-c3ccccc3)cc(C(=O)Nc3ccc(CCCCN(C)Cc4ccc(OC)c(OC)c4)cc3)c2c1` yielded a melting point of 148 °C. `CCCC(=O)NCCc1c(OC)ccc2ccccc12` gave a melting point of 73 to 79 °C. `CSC1=Nc2cccnc2Nc2cscc21` showed a melting point of 138 to 140 °C. `CS(=O)(=O)c1cc(C(=O)N=C(N)N)ccc1Oc1ccc(=O)[nH]n1` gave a melting point of 268 to 270 °C. Compound `CCCCN(CCCC)C(=O)On1c(-c2ccccc2)nc2c3ccc4ccccc4c3ccc21` has a melting point of 120 °C. `CCC(=O)Nc1ccc(C(=O)NCCN(CC)CC)c(OC)c1` showed a melting point of 137 °C. With `CN1C(=O)Nc2ccccc2C1(O)C(=O)NC(N)=O` (stereo unspecified) the melting point was > 280 °C. Compound `CN1CCN(C(=N)Nc2ccccc2-c2cccc(F)c2)CC1` has a melting point of 117 to 118 °C. Compound `Cc1csc2c(Sc3nnc(N)s3)ncnc12` has a melting point of 221 to 223 °C. `CC1=CC(=C(C#N)C#N)C=C(C)N1` gave a melting point of 158 to 159 °C. Work on `Cc1csc(C(=O)CCl)c1` yielded a melting point of 76 to 77 °C. Compound `Cc1c(C)c2c(c(C)c1NC(=O)OCC(Cl)(Cl)Cl)C(c1ccc(C(C)C)cc1)CO2` (stereo unspecified) has a melting point of 137 to 140 °C. `CC(C)Cn1c(=O)n(C)c(=O)c2c(Br)c(C(O)c3cccnc3)sc21` (stereo unspecified) gave a melting point of 132 °C. For `CCCCOCc1cc2ccccc2oc1=Nc1ccccc1`, the melting point was 86 to 88 °C. `CC(C)(C)C(O)(CCCOc1ccccc1)Cn1cncn1` (stereo unspecified) showed a melting point of 106 °C. `N#Cc1ccc(OCC(F)(F)C(F)(F)C(F)(F)C(F)(F)COc2ccc([N+](=O)[O-])cc2[N+](=O)[O-])cc1` gave a melting point of 89 to 90.6 °C. `O=C(O)CCc1cc2nc(Cl)ccc2n1S(=O)(=O)c1cccc2ccccc12` showed a melting point of 93 °C. `O=C1C(Br)CCN1c1cc(C(F)(F)F)ccn1` (stereo unspecified) showed a melting point of 43 to 47 °C. `N#Cc1ccc(Nc2nc(Oc3c(Br)cc(Br)cc3Br)ccc2[N+](=O)[O-])cc1` showed a melting point of 188 to 191 °C. `CCC(CC)C(NS(=O)(=O)c1ccc(Cl)cc1)c1ccnn1-c1ccccc1` (stereo unspecified) showed a melting point of 135 to 136 °C. `CCC(=O)c1c(O)c(CNC(C)=O)cc2c1CCCC2` gave a melting point of 136 to 140 °C. Compound `CC#Cc1ccc(NC(=O)C#Cc2ccc(CCN3CCCC3)cc2)cc1` has a melting point of 198 to 199 °C. In the case of `CC(=O)SCC(C(=O)NC(C)C(=O)OCc1ccccc1)C1CCc2ccccc21` (stereo unspecified), the melting point is reported as 95 °C. With `Nc1cc(Cl)cc(N)c1[N+](=O)[O-]` the melting point was 202 °C. Compound `COc1ccc2c(c1)c(C)c(-c1ccc(O)cc1)n2Cc1ccc(OCCN2CCCCC2)cc1` has a melting point of 87 to 90 °C. Work on `COc1cccc2c(=O)c(CSC)cn(C)c12` yielded a melting point of 143 to 145 °C. `CC(O)CC(=O)NCCN` (stereo unspecified) showed a melting point of 71 to 73 °C. Compound `CN1C(=O)N(CC(COc2ccc(-c3cccc(C#N)c3)cc2)N(O)C=O)C(=O)C1(C)C` (stereo unspecified) has a melting point of 130 to 132 °C. Work on `CC1(C)CCC2=C1CCC1C3CC(C#N)C(=O)C=C3CCC21` (stereo unspecified) yielded a melting point of 163 to 165 °C. Compound `O=Cc1ccc2[nH]cc(CCCCN3CC=C(c4ccccc4)CC3)c2c1` has a melting point of 131 °C. `Fc1cc(F)c2c(c1)CC(n1cc[nH]c1=S)C2` (stereo unspecified) gave a melting point of 185 to 186 °C. For `O=C(Nc1cccc2c1C(=O)N(C1CCN(c3ccncc3)CC1)C2=O)c1ccc(Cl)s1`, the melting point was 214 °C. With `Cc1cc(C=O)ccc1C(=O)NCc1ccccn1` the melting point was 79.5 to 83 °C. Compound `O=C(NCl)c1cccc(C(=O)NCl)c1` has a melting point of 73.5 to 75 °C. Work on `CNC(=O)c1cc(-c2ccc(OC)cc2)nn(CC(=O)Nc2ccc(SC)cc2)c1=O` yielded a melting point of 231 to 232 °C. Compound `COc1cccc(C=C2C(=O)NC(=O)N2C)c1` has a melting point of 195 to 197 °C. Work on `COc1ccnc(CCc2nc3cc(-c4ccc5[nH]ccc5c4)cnc3[nH]2)c1` yielded a melting point of 241 to 242 °C. `CNC(=O)Cc1cccc(C(=O)c2ccccc2)c1N` showed a melting point of 145 to 146 °C. Compound `COc1cc(C2=CCCCC2)c(Cl)cc1C(=O)N1Cc2ccc(C(=O)N(C)C[C@@H]3OC(=O)O[C@H]3[C@H](O)[C@H]3COC(=O)O3)n2Cc2ccccc21` has a melting point of 163 to 176 °C. `COC(=O)c1ccc(NC(=O)C(=O)c2ccc3c(c2)C(C)(C)CCC3(C)C)cc1O` showed a melting point of 146 to 147 °C. In the case of `CCCCOc1cccc(CCNC(=O)C(Br)=Cc2ccccc2)c1`, the melting point is reported as 38 to 39 °C. For `C=CCN(c1ncnc2c1ncn2CC(C)O)C1CCCCC1` (stereo unspecified), the melting point was 108 to 110 °C. For `COc1ncncc1[N+](=O)[O-]`, the melting point was 193 to 195 °C. `CCS(=O)(=O)Nc1cc(-c2ncnc(C(C)C)c2Cl)c(F)cc1C#N` gave a melting point of 160 to 162 °C. Work on `O=c1c2ccc([N+](=O)[O-])cc2nc(C(S)c2ncnc3[nH]cnc23)n1-c1ccccc1Cl` (stereo unspecified) yielded a melting point of 218 °C. For `CC1(C)Oc2c(c(=O)n(Cc3ccccc3)c3ccccc23)[C@@H](N2CCCC2=O)[C@@H]1O` (relative stereo), the melting point was > 260 °C. For `CCOC(=O)C1=Cc2cc(N)ccc2OC1C(F)(F)F` (stereo unspecified), the melting point was 111 to 115 °C. For `O=C(O)CCc1cccc(-c2nc(=O)c3ccccc3s2)n1`, the melting point was 243 to 244 °C. `CCOC(=O)C[C@H](NC(=O)/C=C/C(=O)c1ccccc1)C(=O)OCC` showed a melting point of 91 to 93 °C. Work on `CCCCc1nc(Cl)c(COC(C)=O)n1Cc1ccc(-c2cccc(C(=O)O)c2)cc1` yielded a melting point of 172 to 173 °C. Work on `CC(C)(C)OC(=O)Cn1c(C(=O)OCc2ccccc2)cc2cnccc21` yielded a melting point of 94 °C. In the case of `O=C1C=CC(=O)N1CCN1C(=O)C=CC1=O`, the melting point is reported as 193 to 194 °C. In the case of `NCCC(O)(c1ccc(Cl)cc1)c1ccc(-c2ccc(Cl)cc2)cc1` (stereo unspecified), the melting point is reported as 131 to 132 °C. For `O=C(O)c1cc2nc3n(c2cc1Cl)CCC3`, the melting point was > 270 °C. `CCC(=O)C=Cc1ccc(OCc2ccccc2)cc1` gave a melting point of 123 to 125 °C. In the case of `CC1(C)CN=C(c2cc3cccc(NS(=O)(=O)c4cccs4)c3[nH]2)S1`, the melting point is reported as 176 to 177 °C. `CC(C)(C)OC(=O)N1[C@@H](C2CC2)[C@H](C(=O)O)OC1(C)C` showed a melting point of 104 to 108 °C. With `CCOC(=O)COn1c2c([nH]c(=O)c1=O)CCC1=C2C=C(n2ccc(CNC(=O)C(F)(F)F)c2)CC1` the melting point was 199 °C. For `CCCCCCCOc1ccc(C(C)O)cc1` (single isomer, unassigned; (+)), the melting point was 36.7 °C. `C=CCc1cccc2c(=O)cc(-c3c(F)cccc3F)oc12` gave a melting point of 84 to 86 °C. For `Cc1nc(-c2ccc(OCC(C)(C)C)c([N+](=O)[O-])c2)sc1C(=O)O`, the melting point was 242 to 245 °C. Work on `Cc1ccc(S(=O)(=O)NC(=O)Nc2ccc(C(F)(F)F)cc2)cc1` yielded a melting point of 194 to 197 °C. For `Cc1c(NC(=O)C(CSC(=O)Cc2cccs2)Cc2ccccc2)cccc1C(=O)O` (stereo unspecified), the melting point was 134 to 137 °C. Compound `COc1cc(C(=O)O)ccc1Cc1cccc2ccc(CCCC(=O)N(C)C)cc12` has a melting point of 231 to 232 °C. `CCn1c(=O)c(C)cc2cnc(Nc3ccc(N4CCN(C)CC4)cc3)nc21` showed a melting point of 198 to 200 °C. Compound `COP(=O)(OC)C1=C(C)NC(C)=C(C(=O)OCCN(C)Cc2ccccc2)C1c1cccc([N+](=O)[O-])c1` (stereo unspecified) has a melting point of 101 to 103 °C. For `COC(=O)c1cccc(Nc2nccc(-c3ccnc(NCCCO)c3)n2)c1`, the melting point was 162 to 163 °C. With `O=[N+]([O-])c1ccccc1NC1CCN(Cc2ccccc2)CC1` the melting point was 93.4 to 94.6 °C. Work on `CC1CN(Cc2ccccc2)CCC12CC(c1ccccc1)=NO2` (stereo unspecified) yielded a melting point of 101 to 108 °C. For `CCOC(=O)c1cn(C)cc(-c2cccc(C(F)(F)F)c2)c1=O`, the melting point was 151 to 152 °C. For `CC(=O)SCC(CCc1cccc(C)c1)C(=O)O` (stereo unspecified), the melting point was 52 to 54 °C. In the case of `O=C(c1ccccc1)c1cccc2c1CCC2C(=O)O` (stereo unspecified), the melting point is reported as 100 to 102 °C. With `CCn1nc(C)c2c(Cl)c(CO)cnc21` the melting point was 119 to 121 °C. Compound `CC(=O)CC(=O)C=Cc1cc(O)ccc1Br` has a melting point of 185 to 188 °C. Work on `Cn1c2cc(C(O)CO)ccc2c2c3c(c(-c4ccccc4Cl)cc21)C(=O)NC3=O` (stereo unspecified) yielded a melting point of 252 to 255 °C. Work on `NC(=O)C1(c2ccc(Br)nc2)CCCC1` yielded a melting point of 211 to 212 °C. For `CN1CCN(Cc2nnc(S)n2Cc2cc(F)cc(F)c2)CC1`, the melting point was 200 to 201 °C. `O[C@@H]1CNC[C@H]1Oc1ccccc1` (relative stereo) showed a melting point of 120 to 122 °C. With `ClCc1nnc2n1-c1sc(Cl)cc1C(c1ccccc1Cl)=NC2` the melting point was 101 to 103 °C. `Cc1cccc(C(O)CN2CCNC2=S)c1` (stereo unspecified) gave a melting point of 100 °C. `CN(C)C=CC(=O)c1cc(Cl)cc(Cl)c1` showed a melting point of 100 °C. `N#Cc1c(N)ccc2cc(Cl)cnc12` gave a melting point of 246 °C. In the case of `CCCc1c(C2=NN=C(C)Cc3cc4[nH]c(=O)oc4cc32)sc2ccccc12`, the melting point is reported as 307 to 308 °C. `Cc1ccc(Cl)cc1NC(=S)n1c(C)cc2ccccc21` showed a melting point of 121 to 122 °C. `CCc1ccc(C2(OC(C)=O)C(=O)c3ccccc3C2=O)c(OC(C)=O)c1` gave a melting point of 136 to 137 °C. `Cn1c(COc2ccc(CC3SC(=O)NC3=O)cc2)nc2cc(Br)cnc21` (stereo unspecified) showed a melting point of 204 to 205 °C. Compound `O=CNCC(=O)c1ccc(Cl)s1` has a melting point of 111 to 113 °C. Compound `Cc1nnc2n1-c1sc(C(C)OC(=O)C(C)(C)C)cc1C(c1ccccc1Cl)=NC2` (stereo unspecified) has a melting point of 148 to 151 °C. In the case of `CCOCc1nc2c(N)nc(C)c(C)c2n1NC1CCN(S(C)(=O)=O)CC1`, the melting point is reported as 127 to 131 °C. For `CC(C)(C)[Si](C)(C)N1C(=O)C(C(Cc2ccccc2)OC=O)C1SC(c1ccccc1)(c1ccccc1)c1ccccc1` (stereo unspecified), the melting point was 172 to 173 °C. Work on `Cn1c(-c2ccccc2)cc2oc(=O)nc(-c3ccccc3)c2c1=O` yielded a melting point of 178 to 179 °C. For `CCC(=Cc1ccccc1)C(=O)O`, the melting point was 104 to 105 °C. With `CCOC(=O)c1cn(-c2ncnn2C)c2nc(Cl)c(F)cc2c1=O` the melting point was 256 to 263 °C. For `COC(=O)C(=O)NCCc1ccc(OCc2ccccc2)c(OCc2ccccc2)c1`, the melting point was 84 °C. With `COc1cc(-c2nc(NCCC(=O)O)c3c(C)c(C#N)sc3n2)cc(OC)c1OC` the melting point was 222 to 225 °C. `C#CCN=c1sc2cc(OC(F)(F)F)ccc2n1CC(=O)c1ccc(C)cc1` gave a melting point of 98 to 100 °C. With `NC(=O)N1C(=O)C(C(=O)c2ccccc2)c2ncc(Cl)cc21` (stereo unspecified) the melting point was 260 °C. `C#CC(C)(O)C1CCC2C3CC=C4CC(OC)CCC4(C)C3CCC21C` (stereo unspecified) gave a melting point of 175 to 176 °C. For `Cn1nc(-c2ccccc2)cc1C(=O)Nc1ccc(OCC(C)(C)C)c(C#N)c1`, the melting point was 223 to 224 °C. Compound `O=C1N=C(N2CCCC2)SC1Cc1cccc(-c2ccc(O)c(C34CC5CC(CC(C5)C3)C4)c2)c1` (stereo unspecified) has a melting point of 153 to 154 °C.
